Measured values taken from PMC6193938, “Characterization of a novel AICARFT inhibitor which potently elevates ZMP and has anti-tumor activity in murine models” (Scientific Reports, 2018).
Like-named read-outs stand apart in the source and are kept apart here.

What was measured:
PDGFRa = target: T1, PDGFRa (Homo sapiens, UniProt P16234); test: CEREP protein kinase assay; assay type: biochemical
T1 construct: purchased CEREP Panlabs (Eurofins)

IKKb = target: T2, IKKb (Homo sapiens, UniProt O14920); test: CEREP protein kinase assay; assay type: biochemical
T2 construct: purchased CEREP Panlabs (Eurofins)
T2 sequence (O14920 1-756): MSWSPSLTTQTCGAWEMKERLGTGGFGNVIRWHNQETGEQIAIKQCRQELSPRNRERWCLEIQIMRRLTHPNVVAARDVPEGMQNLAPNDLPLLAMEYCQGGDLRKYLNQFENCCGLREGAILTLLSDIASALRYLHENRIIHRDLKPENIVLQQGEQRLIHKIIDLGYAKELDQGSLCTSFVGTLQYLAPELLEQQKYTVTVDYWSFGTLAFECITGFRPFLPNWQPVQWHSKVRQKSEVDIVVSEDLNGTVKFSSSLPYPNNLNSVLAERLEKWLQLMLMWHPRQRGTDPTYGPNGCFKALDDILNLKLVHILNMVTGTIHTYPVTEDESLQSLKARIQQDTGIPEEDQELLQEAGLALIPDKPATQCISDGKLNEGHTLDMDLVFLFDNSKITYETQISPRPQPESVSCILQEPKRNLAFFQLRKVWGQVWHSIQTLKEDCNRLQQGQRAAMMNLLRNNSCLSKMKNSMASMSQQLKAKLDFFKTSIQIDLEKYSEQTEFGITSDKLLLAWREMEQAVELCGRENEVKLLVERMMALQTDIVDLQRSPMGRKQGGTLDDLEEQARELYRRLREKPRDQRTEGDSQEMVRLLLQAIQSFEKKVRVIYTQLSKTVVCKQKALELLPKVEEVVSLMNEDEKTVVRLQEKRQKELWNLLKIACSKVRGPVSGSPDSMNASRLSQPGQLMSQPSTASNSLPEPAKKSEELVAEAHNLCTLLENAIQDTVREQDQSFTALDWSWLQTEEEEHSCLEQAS

HCT 116 (colon) = test: Low folate & high folate in vitro proliferation assay (Alamar Blue); assay type: cell-based; settings: Homo sapiens
Experimental: (§1) Cells lines were acquired from cell banks, see supplemental material, grown using the cell banks recommended culture conditions (Supplemental Table 3). In some experiments noted “low folate” the cells were washed and grown in folate free RPMI-1640 media (Gibco #27016-021) supplemented with 5 ml 1 M Hepes, 5 ml 100 mM Na pyruvate, 2.5 mg/ml glucose and 10% defined FBS (Hyclone #SH30070) per 500 mL media for 5–7 days to deplete intracellular folate levels prior to the start of the experiment. Where noted, cells were maintained in complete “high folate” RPMI-1640 media (ATCC #30-2001) with 10% defined FBS to contrast with the low folate conditions.
(§2) Cells were cultured using recommended culture conditions unless noted otherwise (Supplemental Table 3). Cells were plated, dosed with compound and incubated at 37 °C for approximately 2 doubling times as determined for each cell line. Cell Titer Glo (Promega) assay was used to measure proliferation according to manufacturer’s recommendations by measuring luminescence with Flexstation3 (Molecular Devices) with 500 ms integration time. […] The % response was fit to a four-parameter logistic equation using ACTIVITYBASE 4.0 to determine the absolute IC50 values.
(§3) For a limited number of cell lines, compound dosing was performed under high or low folate conditions with cell viability being determined with Alamar Blue rather than an ATP dependent assay. Cells were plated and treated as described above. Proliferation was measured using Alamar Blue Cell Viability Reagent (Invitrogen), and read after approximately 1.5–4 hours incubation at 37 °C on the Envision plate reader (Perkin Elmer) with excitation at 570 nm and emission at 585 nm. The % inhibition for each sample was calculated and fit as described above.

A101D (melenoma) = test: as above; assay type: cell-based; settings: Homo sapiens
Experimental: as §1, §2, §3

SW620 (colon) = test: as above; assay type: cell-based; settings: Homo sapiens
Experimental: as §1, §2, §3

MIA PaCa-2 (pancreas) = test: as above; assay type: cell-based; settings: Homo sapiens
Experimental: as §1, §2, §3

SNU-16 (gastric) = test: as above; assay type: cell-based; settings: Homo sapiens
Experimental: as §1, §2, §3

IRAK4 = target: T3, IRAK4 (Homo sapiens, UniProt Q9NWZ3); test: CEREP protein kinase assay; assay type: biochemical
T3 construct: purchased CEREP Panlabs (Eurofins)
T3 sequence (Q9NWZ3 1-460): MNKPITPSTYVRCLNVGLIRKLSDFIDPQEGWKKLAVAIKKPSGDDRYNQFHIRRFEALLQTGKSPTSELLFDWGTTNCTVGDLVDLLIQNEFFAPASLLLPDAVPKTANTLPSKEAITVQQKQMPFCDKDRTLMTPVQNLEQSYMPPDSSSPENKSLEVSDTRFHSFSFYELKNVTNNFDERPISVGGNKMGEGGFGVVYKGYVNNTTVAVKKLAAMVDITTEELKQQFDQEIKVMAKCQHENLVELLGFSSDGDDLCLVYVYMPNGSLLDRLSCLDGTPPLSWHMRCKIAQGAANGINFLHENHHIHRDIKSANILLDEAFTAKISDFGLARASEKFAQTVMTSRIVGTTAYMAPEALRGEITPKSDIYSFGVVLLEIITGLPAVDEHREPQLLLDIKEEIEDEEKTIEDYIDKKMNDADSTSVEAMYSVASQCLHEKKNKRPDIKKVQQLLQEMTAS

WEE1 = target: T4, WEE1 (Homo sapiens, UniProt P30291); test: CEREP protein kinase assay; assay type: biochemical
T4 construct: purchased CEREP Panlabs (Eurofins)

[1] = RPMI media, read-out: Alamar Blue GI50 Regular folate
[2] = low folate RPMI media, read-out: Alamar Blue GI50 Low folate

T4 sequence (P30291 whole entry): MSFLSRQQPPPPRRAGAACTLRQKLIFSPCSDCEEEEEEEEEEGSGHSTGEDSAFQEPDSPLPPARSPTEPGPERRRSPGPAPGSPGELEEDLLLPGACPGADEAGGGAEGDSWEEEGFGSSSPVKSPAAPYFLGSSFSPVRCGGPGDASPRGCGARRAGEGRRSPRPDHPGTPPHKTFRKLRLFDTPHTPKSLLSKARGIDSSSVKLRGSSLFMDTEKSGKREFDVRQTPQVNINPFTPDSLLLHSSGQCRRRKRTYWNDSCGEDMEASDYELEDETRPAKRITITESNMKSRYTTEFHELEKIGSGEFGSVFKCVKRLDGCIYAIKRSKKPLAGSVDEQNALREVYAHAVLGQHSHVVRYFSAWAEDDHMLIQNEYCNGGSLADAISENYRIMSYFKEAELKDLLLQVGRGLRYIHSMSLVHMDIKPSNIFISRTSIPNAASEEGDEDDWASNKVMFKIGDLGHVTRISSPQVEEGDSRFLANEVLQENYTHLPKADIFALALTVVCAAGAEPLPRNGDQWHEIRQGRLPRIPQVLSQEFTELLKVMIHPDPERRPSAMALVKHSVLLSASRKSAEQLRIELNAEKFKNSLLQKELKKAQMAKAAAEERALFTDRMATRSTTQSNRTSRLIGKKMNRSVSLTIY
T1 sequence (P16234 24-1089): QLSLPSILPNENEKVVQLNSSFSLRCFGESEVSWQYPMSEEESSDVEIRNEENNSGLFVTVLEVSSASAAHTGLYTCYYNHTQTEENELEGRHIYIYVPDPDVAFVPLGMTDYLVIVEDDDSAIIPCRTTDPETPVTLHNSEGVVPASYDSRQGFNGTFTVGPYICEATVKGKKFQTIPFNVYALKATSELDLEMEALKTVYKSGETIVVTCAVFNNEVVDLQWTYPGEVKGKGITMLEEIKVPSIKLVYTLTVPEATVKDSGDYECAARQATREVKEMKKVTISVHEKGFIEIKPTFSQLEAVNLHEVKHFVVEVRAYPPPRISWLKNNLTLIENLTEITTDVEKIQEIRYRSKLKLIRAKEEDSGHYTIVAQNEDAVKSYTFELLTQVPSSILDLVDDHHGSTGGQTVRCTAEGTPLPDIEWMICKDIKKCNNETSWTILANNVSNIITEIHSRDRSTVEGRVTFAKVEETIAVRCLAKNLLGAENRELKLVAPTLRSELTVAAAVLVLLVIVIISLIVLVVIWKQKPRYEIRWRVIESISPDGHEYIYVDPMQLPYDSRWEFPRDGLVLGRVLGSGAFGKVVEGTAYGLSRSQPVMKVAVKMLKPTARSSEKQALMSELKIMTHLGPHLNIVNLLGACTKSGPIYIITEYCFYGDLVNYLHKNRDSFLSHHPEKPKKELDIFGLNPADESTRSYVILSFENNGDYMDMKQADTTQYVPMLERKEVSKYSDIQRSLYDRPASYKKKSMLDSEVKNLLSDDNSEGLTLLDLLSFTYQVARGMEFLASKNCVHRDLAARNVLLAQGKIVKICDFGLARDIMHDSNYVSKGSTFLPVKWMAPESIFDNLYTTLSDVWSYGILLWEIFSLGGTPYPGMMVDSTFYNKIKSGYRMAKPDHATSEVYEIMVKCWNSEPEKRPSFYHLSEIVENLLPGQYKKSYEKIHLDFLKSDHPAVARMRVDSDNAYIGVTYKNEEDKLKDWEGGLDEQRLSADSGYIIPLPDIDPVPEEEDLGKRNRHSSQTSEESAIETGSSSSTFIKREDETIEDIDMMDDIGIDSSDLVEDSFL

## O=c1[nH]ccc2cc(F)c(NS(=O)(=O)c3ccc(N4CC[C@@H](O)C4)s3)cc12 [LSN3213128, N-(6-Fluoro-1-oxo-1,2-dihydroisoquinolin-7-yl)-5-[(3R)-3-hydroxypyrrolidin-1-yl]thiophene-2-sulfonamide]
PDGFRa; @ 0.2 uM
  inhibition at 0.2 µM: -10.5%
PDGFRa; @ 2 uM
  inhibition at 2 µM: 12.3%
PDGFRa; @ 20 uM
  inhibition at 20 µM: 44.9%
IKKb; @ 0.2 uM
  inhibition at 0.2 µM: -6.4%
IKKb; @ 2 uM
  inhibition at 2 µM: 0.126%
IKKb; @ 20 uM
  inhibition at 20 µM: 4.91%
HCT 116 (colon); [1]
  GI50: 2810 ± 1220 nM
HCT 116 (colon); [2]
  GI50: 2.2 ± 2.1 nM
A101D (melenoma); [1]
  GI50: 3290 nM
A101D (melenoma); [2]
  GI50: 2.9 nM
SW620 (colon); SW-620, RPMI media, read-out: Alamar Blue GI50 Regular folate
  GI50: 3910 ± 3240 nM
SW620 (colon); SW-620, low folate RPMI media, read-out: Alamar Blue GI50 Low folate
  GI50: 8.8 ± 1.6 nM
MIA PaCa-2 (pancreas); [1]
  GI50: 4870 ± 4200 nM
MIA PaCa-2 (pancreas); [2]
  GI50: 1.6 ± 1 nM
SNU-16 (gastric); [1]
  GI50: 1590 ± 1270 nM
SNU-16 (gastric); [2]
  GI50: 1.2 ± 1.2 nM
IRAK4; @ 0.2 uM
  inhibition at 0.2 µM: -4.69%
IRAK4; @ 2 uM
  inhibition at 2 µM: 0.428%
IRAK4; @ 20 uM
  inhibition at 20 µM: -0.827%
WEE1; @ 0.2 uM
  inhibition at 0.2 µM: 1.15%
WEE1; @ 2 uM
  inhibition at 2 µM: 7.31%
WEE1; @ 20 uM
  inhibition at 20 µM: 14.2%
